# Measured values: US8252832B2, “Kinesin inhibitors as cancer therapeutics” (Novartis AG, priority 2007, dated 2012)
# Read-outs that look alike come from different tables or passages of the source.
# Columns and labels:
# Experiment in all cases: CellTiter-Glo, NCI60 panel
# Assay type in all cases: cell-based
# [1] = system: ACHN; settings: Renal; for GI50: Homo sapiens
# Description: (§1) Identification of tumor types that are the most sensitive to the KSP inhibitors of the present invention can be accomplished using an unbiased approach that uses several cell-based assays. The assays chosen were as follows: • CellTiter-Glo®. This is an assay designed to measure ATP concentration in a cell culture, and can be correlated to cell number. Briefly CellTiter-Glo® (Promega Corporation) is a homogeneous method using the single CellTiter-Glo® reagent to detect ATP wherein ATP in the assay drives the activity of a thermostable luciferase to create a luminescent signal which can then be measured and correlated with the number of viable cells. Briefly, for adherent cells, 1,000 to 5,000 cells/well were plated in 96-well plates (100 μl/well) and let to adhere for 24 hours before being treated with drug. For non-adherent cells, 1,000 to 10,000 cells/well were plated in 96-well plates (100 μl/well) and immediately treated with drug. Drug dilutions were prepared in DMSO at 1000 times the final concentration. These dilutions were then diluted 1/100 in growth media before being added to the cells (11 μl/well) to achieve the desired final concentration. After 48 h in a 37° C. tissue culture incubator, the plates were processed for the CellTiter-Glo®assay according to the manufacturer's instructions. Protocol for a 72 hour cell proliferation assay: The 72 hour assay was performed the same way as the 48 hour assay except for the following modifications: For adherent cells, 500 to 5,000 cells/well were plated in 96-well plates (90 μl/well cell growth media) and left to adhere for 24 hours before being treated with drug. For non-adherent cells, 1,000 to 10,000 cells/well were plated in 96-well plates (90 μl/well cell growth media) and immediately treated with drug. Data values presented represent the concentration of test compound required for a 50% reduction in growth. • LDH release. The Cytotoxicity Detection KitPLUS (LDH) assay (Roche Diagnostics, Manheim, Germany) measures the amount of LDH released in the media by dying cells; LDH catalyzes the conversion of lactate into pyruvate. The enzymatic reaction is coupled to a chemical reaction that uses a tetrazolium salt to form a formazan that is red and can be detected by its absorbance at 490 nm. This assay measures the amount of cell death after drug treatment. Cells were plated at 10,000 cells/well in 96-well plates (100 μl/well). Adherent cells were let to adhere for 24 hours before being treated with drug, whereas non-adherent cells were immediately treated with drug. Drug dilutions were prepared in DMSO at 1000 times the final concentration. These dilutions were then diluted 1/100 in growth media before being added to the cells (11 μl/well) to achieve the desired final concentration. After 48 h in a 37° C. tissue culture incubator, the plates were processed for the Cytotoxicity Detection KitPLUS (LDH) assay according to the manufacturer's instructions. The media only values were subtracted from all the data points before analysis. Data values presented correspond to the compound concentration wherein LDH output is at half maximal level. • Caspase-Glo® 3/7. The Caspase-Glo® 3/7 Assay (Promega Corporation) is a homogeneous luminescent assay that measures caspase-3/7 activities. The assay provides a proluminescent caspase-3/7 DEVD-aminoluciferin substrate and a thermostable luciferase in a reagent optimized for caspase-3/7 activity, luciferase activity and cell lysis. Adding the single Caspase-Glo® 3/7 Reagent results in cell lysis, followed by caspase cleavage of the substrate. This liberates free aminoluciferin, which is consumed by the luciferase, generating a luminescent signal. The signal is proportional to caspase-3/7 activity. Data values presented correspond to the compound concentration wherein caspase 3/7 activity is at half maximal level. […]
# [2] = system: CAKI-1; settings: Renal; for GI50: Homo sapiens
# Description: as §1
# [3] = system: DU-145; settings: Prostate; for GI50: Homo sapiens
# Description: as §1
# [4] = system: IGROV1; settings: for GI50: Homo sapiens, IGROV-1, Ovarian
# Description: as §1
# [5] = system: NCI-H226; settings: NSCL; for GI50: Homo sapiens
# Description: as §1
# [6] = system: NCI-H322M; settings: NSCL; for GI50: Homo sapiens
# Description: as §1
# [7] = system: NCI-H522; settings: NSCL; for GI50: Homo sapiens
# Description: as §1
# [8] = system: OVCAR-5; settings: Ovarian; for GI50: Homo sapiens
# Description: as §1
# [9] = system: PC-3; settings: Prostate; for GI50: Homo sapiens
# Description: as §1
# [10] = system: SF-295; settings: CNS; for GI50: Homo sapiens
# Description: as §1
# [11] = system: SF-539; settings: CNS; for GI50: Homo sapiens
# Description: as §1
# [12] = system: SK-MEL-28; settings: Melanoma; for GI50: Homo sapiens
# Description: as §1
# [13] = system: SK-OV-3; settings: Ovarian; for GI50: Homo sapiens
# Description: as §1
# [14] = system: SN12C; settings: Renal; for GI50: Homo sapiens
# Description: as §1
# [15] = system: SW-620; settings: Colon; for GI50: Homo sapiens
# Description: as §1
# [16] = system: U251; settings: for GI50: Homo sapiens, U-251, CNS
# Description: as §1
# [17] = GI50 in nM, read-out: Log(GI50) (converted)
compound,measurement,setting,value
CC(C)(C)[C@H](c1nc(-c2cc(F)ccc2F)cn1Cc1ccccc1)N(CC[C@H](N)CF)C(=O)CO [Compound IIa],GI50,[1]; [17],10 nM
same,GI50,[1]; read-out: GI50,10 nM
same,Differential vs mean Log(GI50),[1],−0.669
same,GI50,[2]; [17],10 nM
same,GI50,[2]; read-out: GI50,10 nM
same,Differential vs mean Log(GI50),[2],−0.669
same,GI50,[3]; [17],0.435 nM
same,GI50,[3]; read-out: GI50,0.435 nM
same,Differential vs mean Log(GI50),[3],0.693
same,GI50,[4]; [17],10 nM
same,GI50,[4]; read-out: GI50,10 nM
same,Differential vs mean Log(GI50),[4]; Ovarian,−0.669
same,GI50,[5]; [17],10 nM
same,GI50,[5]; read-out: GI50,10 nM
same,Differential vs mean Log(GI50),[5],−0.669
same,GI50,[6]; [17],10 nM
same,GI50,[6]; read-out: GI50,10 nM
same,Differential vs mean Log(GI50),[6],−0.669
same,GI50,[7]; [17],0.166 nM
same,GI50,[7]; read-out: GI50,0.166 nM
same,Differential vs mean Log(GI50),[7],1.111
same,GI50,[8]; [17],10 nM
same,GI50,[8]; read-out: GI50,10 nM
same,Differential vs mean Log(GI50),[8],−0.669
same,GI50,[9]; [17],10 nM
same,GI50,[9]; read-out: GI50,10 nM
same,Differential vs mean Log(GI50),[9],−0.669
same,Differential vs mean Log(GI50),[10],1.122
same,GI50,[10]; [17],0.162 nM
same,GI50,[10]; read-out: GI50,0.162 nM
same,Differential vs mean Log(GI50),[11],0.743
same,GI50,[11]; [17],0.387 nM
same,GI50,[11]; read-out: GI50,0.387 nM
same,GI50,[12]; [17],10 nM
same,GI50,[12]; read-out: GI50,10 nM
same,Differential vs mean Log(GI50),[12],−0.669
same,GI50,[13]; [17],0.421 nM
same,GI50,[13]; read-out: GI50,0.421 nM
same,Differential vs mean Log(GI50),[13],0.707
same,GI50,[14]; [17],10 nM
same,GI50,[14]; read-out: GI50,10 nM
same,Differential vs mean Log(GI50),[14],−0.669
same,Differential vs mean Log(GI50),[15],0.958
same,GI50,[15]; [17],0.236 nM
same,GI50,[15]; read-out: GI50,0.236 nM
same,Differential vs mean Log(GI50),[16]; CNS,0.953
same,GI50,[16]; [17],0.239 nM
same,GI50,[16]; read-out: GI50,0.239 nM
